Experimental data from article PMC10303271, “Synthesis and Receptor Binding Studies of α5 GABAAR Selective Novel Imidazodiazepines Targeted for Psychiatric and Cognitive Disorders” (Molecules, 2023).

Tests used:
[1] = target: kappa opioid receptors (KOR) (Homo sapiens, UniProt P41145); experiment: PDSP radioligand binding at KOR; settings: for inhibition at 10 µM: 1.5 h, at 10,000 nM, N = 5, [3H]-U69593 0.83 nM, read-out: Primary Binding %KOR
Text: (§1) Opioid receptors are a family of inhibitory G-coupled protein receptors where opioids act as the ligand. The kappa opioid receptors (KOR), µ and δ opioid receptors (MOR and DOR), and nociception opioid receptor (NOP) fall under the family of opioids receptors. It has been reported that oxadiazole imidazodiazepines can mediate analgesic and anti-inflammatory properties mediated also by the κ opioid receptor (KOR). The binding at KOR is usually silent. The affinities of the test compounds for KOR, DOR, and MOR were determined using radioligand binding assays at a screening concentration of 10,000 nM in collaboration with the National Institute of Mental Health’s Psychoactive Drug Screening Program (PDSP), as mentioned before. Concentration-dependent experiments were conducted to determine Ki values for the compounds that exceeded more than 50% radioligand displacement in primary binding assays.
(§2) The NIMH PDSP assay protocol book [https://kidbdev.med.unc.edu/databases/PDSP%20Protocols%20II%202013-03-28.pdf accessed on 23 April 2023]. describes the protocols for primary and secondary radio-ligand binding assays. These assays were carried out in a final volume of 125 µL per well in the appropriate binding buffer.
(§3) The binding of a ligand to a receptor, ion channel, or transporter was determined in the […] of 10 µM of the appropriate reference compound. […] Plates were incubated in the dark for 90 min at rt, and the reactions were stopped by vacuum filtration onto 0.3% polyethyleneimine (PEI) soaked 96-well filter mats using a 96-well Filtermateharvester. This was followed by three washes with cold PBS buffer. Radioactivity was then counted on a Microbeta counter. Nonlinear regression was used to analyze the data with N = 6 replicates.

MOR = target: T1, MOR (Homo sapiens, UniProt P35372); experiment: PDSP radioligand binding at MOR; settings: 1.5 h; at 10,000 nM; N = 5; [3H]-DAMGO 1.20 nM; read-out: Primary Binding %MOR
T1 construct: purchased NIMH Psychoactive Drug Screening Program (PDSP)
Text: as §1, §2, §3

DOR = target: T2, DOR (Homo sapiens, UniProt P41143); experiment: PDSP radioligand binding at DOR; settings: at 10,000 nM; N = 5; [3H]-DADLE 2.69 nM; read-out: Primary Binding %DOR
T2 construct: purchased NIMH Psychoactive Drug Screening Program (PDSP)
Text: as §1, §2, §3

[2] = set-up: method as in PMID 35266641, PMID 36712569, doi:10.1016/j.euroneuro.2019.09.268; settings: autism, antipsychotic activity, cognitive disorders; cited from earlier work

Sequence of kappa opioid receptors (KOR) (P41145 whole entry): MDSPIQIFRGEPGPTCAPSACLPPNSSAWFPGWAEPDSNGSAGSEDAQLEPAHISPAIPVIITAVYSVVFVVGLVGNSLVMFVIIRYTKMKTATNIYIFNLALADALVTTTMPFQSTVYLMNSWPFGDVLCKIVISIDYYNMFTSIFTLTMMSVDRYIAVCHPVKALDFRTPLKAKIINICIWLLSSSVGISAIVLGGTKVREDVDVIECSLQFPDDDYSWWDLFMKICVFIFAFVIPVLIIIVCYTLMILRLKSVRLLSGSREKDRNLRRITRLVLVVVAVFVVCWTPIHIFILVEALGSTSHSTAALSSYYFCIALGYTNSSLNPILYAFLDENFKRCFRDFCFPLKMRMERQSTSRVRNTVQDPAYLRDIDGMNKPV
T2 sequence (P41143 whole entry): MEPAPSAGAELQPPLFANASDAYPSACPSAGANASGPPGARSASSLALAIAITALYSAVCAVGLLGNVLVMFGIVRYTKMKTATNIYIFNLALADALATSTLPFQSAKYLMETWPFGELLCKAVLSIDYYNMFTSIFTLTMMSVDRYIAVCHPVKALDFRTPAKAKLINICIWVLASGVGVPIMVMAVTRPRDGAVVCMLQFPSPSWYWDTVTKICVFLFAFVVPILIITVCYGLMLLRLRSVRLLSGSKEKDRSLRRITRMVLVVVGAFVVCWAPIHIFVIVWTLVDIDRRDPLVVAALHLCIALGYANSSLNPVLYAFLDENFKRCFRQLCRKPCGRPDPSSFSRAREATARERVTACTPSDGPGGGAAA
T1 sequence (P35372 whole entry): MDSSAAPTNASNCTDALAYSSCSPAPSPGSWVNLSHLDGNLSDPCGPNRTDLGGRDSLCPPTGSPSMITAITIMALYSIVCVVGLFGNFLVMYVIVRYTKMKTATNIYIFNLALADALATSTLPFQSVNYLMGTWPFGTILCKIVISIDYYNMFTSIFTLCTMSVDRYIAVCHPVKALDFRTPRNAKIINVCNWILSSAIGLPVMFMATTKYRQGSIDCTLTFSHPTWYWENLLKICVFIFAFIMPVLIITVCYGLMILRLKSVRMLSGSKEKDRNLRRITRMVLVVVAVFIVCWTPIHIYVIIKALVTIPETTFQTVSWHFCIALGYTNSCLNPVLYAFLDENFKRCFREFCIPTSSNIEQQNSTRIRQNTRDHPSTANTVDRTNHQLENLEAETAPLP

| SMILES | Ki [1] [nM] | inhibition at 10 µM [1] [%] | inhibition at 10 µM (MOR) [%] | inhibition at 10 µM (DOR) [%] | activity in psychiatric disorders [2] |
| --- | --- | --- | --- | --- | --- |
| CCc1noc(-c2ncn3c2[C@@H](C)N=C(c2ccccc2F)c2cc(C4CC4)ccc2-3)n1 [Compound 47] | 248 ± 22.6 | 91.3 ± 3.06 | 25.1 ± 12.8 | 67.3 ± 7.84 | – |
| C#Cc1ccc2c(c1)C(c1ccccc1F)=N[C@H](C)c1c(C(=O)NC)ncn1-2 [MP-III-022] | – | – | – | – | active in low doses |
| C[C@H]1N=C(c2ccccc2F)c2cc(Cl)ccc2-n2cnc(C(=O)N(C)C)c21 [Compound 32, (R)-8-Chloro-6-(2′-fluorophenyl)-N,N,4-trimethyl-4H-benzo[f]imidazo[1,5-a][1,4]diazepine-3-carboxamide] | 731 ± 238 | 81.4 ± 7.52 | 11.2 ± 5.47 | 14.4 ± 7.98 | – |
